The values that follow come from patent publication US20250368619A1, “SUBSTITUTED TETRAHYDROCYCLOHEPTA[E]INDOLE DERIVATIVES, PROCESSES FOR THEIR PREPARATION AND THERAPEUTIC USES THEREOF” (SANOFI, priority 2022, published 2025).

The target of this assay is T1, ERα (Homo sapiens, UniProt P03372).
T1 construct: host or cells: MCF7
T1 sequence (P03372 1-595): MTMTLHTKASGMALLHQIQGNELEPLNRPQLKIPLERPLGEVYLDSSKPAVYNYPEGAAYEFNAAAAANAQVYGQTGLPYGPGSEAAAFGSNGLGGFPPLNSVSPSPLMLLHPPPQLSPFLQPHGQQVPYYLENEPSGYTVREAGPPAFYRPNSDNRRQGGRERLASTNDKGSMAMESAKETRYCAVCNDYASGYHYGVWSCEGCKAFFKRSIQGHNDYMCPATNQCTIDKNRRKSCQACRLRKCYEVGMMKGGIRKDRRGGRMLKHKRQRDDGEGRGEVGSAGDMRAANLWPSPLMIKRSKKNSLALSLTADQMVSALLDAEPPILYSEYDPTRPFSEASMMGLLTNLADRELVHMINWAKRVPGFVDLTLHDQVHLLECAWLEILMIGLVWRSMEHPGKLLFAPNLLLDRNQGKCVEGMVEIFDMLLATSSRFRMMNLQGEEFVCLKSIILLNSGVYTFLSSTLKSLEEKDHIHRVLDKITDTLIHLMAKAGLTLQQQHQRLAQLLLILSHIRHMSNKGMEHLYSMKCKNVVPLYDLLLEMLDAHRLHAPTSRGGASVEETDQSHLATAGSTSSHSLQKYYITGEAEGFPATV
The assay is described as follows: Estrogen receptor degradation activity: breast cancer cell ERα in cell western assay in MCF7 cells. Format: cell-based. The following applies: 4 hours, relative to fulvestrant 0.1 μM positive control. Here is the method:
Test: Estrogen receptor degradation activity
Said test involves measuring the in vitro degradation activity of the compounds of the table 1.
The measurements of the degradation activities were made using a breast cancer cell ERα in cell western assay as described hereunder.
MCF7 cells (ATCC) were seeded in 384 wells microplate (collagen coated) at a concentration of 10000 cells/30 μL per well in red phenol free MEM alpha medium (invitrogen) containing 5% charcoal dextran striped FBS. The following day, 9 points serial 1:5 dilution of each compound was added to the cells in 2.5 μL at final concentrations ranging from 0.3-0.0000018 μM (in table 2), or 0.1 μM for fulvestrant (using as positive control). At 4 hours post compound addition the cells were fixed by adding 25 μL of formalin (final concentration 5% formalin containing 0.1% triton) for 10 minutes at RT and then washed twice with PBS. Then, 50 μL of LI-COR blocking buffer containing 0.1% Triton was added to plate for 30 minutes at RT. LI-COR blocking buffer was removed and cells were incubated overnight at cold room with 50 μL anti-ER rabbit monoclonal antibody (Thermo scientific MA1-39540) diluted at 1:1000 in LI-COR blocking buffer containing 0.1% tween-20. Wells which were treated with blocking buffer but no antibody were used as background control. Wells were washed twice with PBS (0.1% tween-20) and incubated at 37° C. for 60 minutes in LI-COR (0.1% tween-20) containing goat anti-rabbit antibody Alexa 488 (1:1000) and Syto-64 a DNA dye (2 μM final concentration). Cells were then washed 3 times in PBS and scanned in ACUMEN explorer (TTP-Labtech). Integrated intensities in the green fluorescence and red fluorescence were measured to determine the levels of ERα and DNA respectively.
The degradation activity with respect to estrogen receptors in this test is given by the concentration which degrades 50% of the estrogen receptor (or IC50) in nM.
The % of ERα levels decrease were determined as follows: % inhibition=100*(1−(sample−fulvestrant:DMSO−fulvestrant)).
Regarding `FCCCN1CC(Cc2ccc(C3=C(c4cccc(C(F)(F)F)c4)CCCc4c3ccc3[nH]ccc43)cc2)C1` [Compound 10, 6-(4-((1-(3-fluoropropyl)azetidin-3-yl)methyl)phenyl)-7-(3-(trifluoromethyl)phenyl)-3,8,9,10-tetrahydrocyclohepta[e]indole], the “% Degradation At 0.3 μM” value was determined as 73%.

Turning to `N#Cc1ccccc1C1=C(c2ccc(CC3CN(CCCF)C3)cc2)c2ccc3[nH]ccc3c2CCC1` [Compound 12, 2-(6-(4-((1-(3-fluoropropyl)azetidin-3-yl)methyl)phenyl)-3,8,9,10-tetrahydrocyclohepta[e]indol-7-yl)benzonitrile], the “% Degradation At 0.3 μM” value was 85%.

For the molecule `Oc1c(F)ccc(C2=C(c3ccc(CC4CN(CCCF)C4)cc3)c3ccc4[nH]ccc4c3CCC2)c1F` [Compound 6, 2,6-difluoro-3-(6-(4-((1-(3-fluoropropyl)azetidin-3-yl)methyl)phenyl)-3,8,9,10-tetrahydrocyclohepta[e]indol-7-yl)phenol], the “% Degradation At 0.3 μM” value was found to be 90%.

For `Cc1c(Cl)cccc1C1=C(c2ccc(/C=C3/CCN(CCCF)C3)cc2)c2ccc3[nH]ccc3c2CCC1` [Compound 29, (Z)-7-(3-chloro-2-methylphenyl)-6-(4-((1-(3-fluoropropyl)pyrrolidin-3-ylidene)methyl)phenyl)-3,8,9,10-tetrahydrocyclohepta[e]indole], the “% Degradation At 0.3 μM” value is 91%.

For `Cc1c(Cl)cccc1C1=C(c2ccc(NC3CN(CCCF)C3)cc2)c2ccc3[nH]ccc3c2CCC1` [Compound 27, N-(4-(7-(3-chloro-2-methylphenyl)-3,8,9,10-tetrahydrocyclohepta[e]indol-6-yl)phenyl)-1-(3-fluoropropyl)azetidin-3-amine], the “% Degradation At 0.3 μM” value was found to be 91%.

Regarding `FCCCN1CC[C@H](Oc2ccc(C3=C(c4ccc(Cl)cc4Cl)CCCc4c3ccc3[nH]ccc43)cc2)C1` [Compound 4, (S)-7-(2,4-dichlorophenyl)-6-(4-((1-(3-fluoropropyl)pyrrolidin-3-yl)oxy)phenyl)-3,8,9,10-tetrahydrocyclohepta[e]indole], the “% Degradation At 0.3 μM” value is listed as 85%.

As to `Cc1c(Cl)cccc1C1=C(c2ccc(C=C3CN(CCCF)C3)cc2)c2ccc3[nH]ccc3c2CCC1` [Compound 3, 7-(3-chloro-2-methylphenyl)-6-(4-((1-(3-fluoropropyl)azetidin-3-ylidene)methyl)phenyl)-3,8,9,10-tetrahydrocyclohepta[e]indole], the “% Degradation At 0.3 μM” value is 91%.

Turning to `Cc1c(Cl)cccc1C1=C(c2ccc(CC3CN(CCCF)C3)cc2)c2ccc3[nH]ccc3c2CCC1` [Compound 8, 7-(3-chloro-2-methylphenyl)-6-(4-((1-(3-fluoropropyl)azetidin-3-yl)methyl)phenyl)-3,8,9,10-tetrahydrocyclohepta[e]indole], the “% Degradation At 0.3 μM” value was 83%.
